Laboratory results published in publication PMC11580889 (bioRxiv, 2025).

Biological target: PNKP (polynucleotide kinase 3'-phosphatase); purified recombinant PNKP (Homo sapiens, UniProt Q96T60)
Assay: intrinsic tryptophan fluorescence quenching titration
Assay type: binding

Kd: 0.525 ± 0.025 µM
SMILES: O=P(O)(O)OC[C@H]1O[C@@](CO)(OP(=O)(O)O)[C@@H](O)[C@@H]1O [F2,6BP]
